Key:
[1] = molecular target: GAL4 DBD-CfEcR(DEF)/VP16AD-MmRXRE (Choristoneura fumiferana, UniProt O77240); assay: 13B3 Assay (CHO stable cell line, luciferase reporter); conditions: for Fold Induction, 13B3 Assay, 3.3 uM: 3.3 uM ligand; for Fold Induction, 13B3 Assay, 3.3 uM / Fold Induction, 13B3 Assay, 33 uM: RLU ligand treated / RLU DMSO treated cells; for Fold Induction, 13B3 Assay, 3.3 uM / Fold Induction, 13B3 Assay, 33 uM / EC50: average of two wells; for Fold Induction, 13B3 Assay, 33 uM: 33 uM ligand; for 13B3 assay Rel Max FI: maximum fold induction at any concentration relative to that of GS-E ligand, CHO 13B3 cells; for EC50: read-out: 13B3 EC50, CHO 13B3 stable cell line, luciferase reporter, 48 h
How it was run: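 Ligands dosed at 8 levels from 33 to 0.01 μM (DMSO stocks diluted 300-fold) onto the 13B3 CHO line carrying GAL4-DBD/CfEcR-DEF, VP16/MmRXR-DE and a GAL4-responsive luciferase gene.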

[2] = molecular target: T1, Bombyx mori EcR (VP16 fusion, CVBE switch construct) (Bombyx mori, UniProt P49881); assay: Z3 Assay (HEK-293 cells with CVBE and 6XEcRE LacZ, β-galactosidase reporter); conditions: for Fold Induction, Z3 Assay, 3.3 uM: 3.3 uM ligand; for Fold Induction, Z3 Assay, 3.3 uM / Fold Induction, Z3 Assay, 33 uM: ligand treated / DMSO treated cells; for Fold Induction, Z3 Assay, 3.3 uM / Fold Induction, Z3 Assay, 33 uM / EC50: average of two wells; for Fold Induction, Z3 Assay, 33 uM: 33 uM ligand; for Z3 assay Rel Max FI: maximum fold induction at any concentration relative to that of GS-E ligand; for Z3 assay Rel Max FI / EC50: HEK-293 Z3 cells; for EC50: read-out: Z3 assay EC50, β-galactosidase reporter
T1 sequence (P49881 86-606): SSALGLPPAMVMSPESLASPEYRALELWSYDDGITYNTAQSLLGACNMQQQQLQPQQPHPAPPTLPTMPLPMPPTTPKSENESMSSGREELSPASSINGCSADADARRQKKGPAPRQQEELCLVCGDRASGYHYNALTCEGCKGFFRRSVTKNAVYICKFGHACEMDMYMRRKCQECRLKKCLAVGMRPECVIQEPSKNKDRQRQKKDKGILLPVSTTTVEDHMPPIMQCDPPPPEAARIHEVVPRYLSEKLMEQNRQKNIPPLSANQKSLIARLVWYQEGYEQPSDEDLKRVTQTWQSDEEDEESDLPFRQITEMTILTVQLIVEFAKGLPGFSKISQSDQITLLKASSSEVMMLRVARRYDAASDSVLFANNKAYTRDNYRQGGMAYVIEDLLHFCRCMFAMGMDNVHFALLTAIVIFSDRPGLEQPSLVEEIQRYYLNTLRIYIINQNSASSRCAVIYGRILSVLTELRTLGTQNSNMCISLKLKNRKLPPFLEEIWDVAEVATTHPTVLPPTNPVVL
T1 sequence (P19793 1-462 partner): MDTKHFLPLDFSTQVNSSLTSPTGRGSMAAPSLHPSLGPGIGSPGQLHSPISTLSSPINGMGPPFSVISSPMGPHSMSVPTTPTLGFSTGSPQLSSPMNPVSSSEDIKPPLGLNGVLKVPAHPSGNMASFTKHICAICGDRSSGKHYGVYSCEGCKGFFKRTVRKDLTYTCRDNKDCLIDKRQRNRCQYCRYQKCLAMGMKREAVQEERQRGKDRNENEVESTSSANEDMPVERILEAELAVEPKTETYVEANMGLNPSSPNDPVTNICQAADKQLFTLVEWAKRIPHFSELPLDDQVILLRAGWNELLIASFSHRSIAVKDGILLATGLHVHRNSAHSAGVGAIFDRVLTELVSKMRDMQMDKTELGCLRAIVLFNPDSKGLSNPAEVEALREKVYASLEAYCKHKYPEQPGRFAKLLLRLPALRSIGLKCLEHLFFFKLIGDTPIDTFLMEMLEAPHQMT

[3] = tested on: mutated ecdysone receptor-based gene switch; assay: In vivo SEAP induction, ligand by IP injection; parameters: species or system C57BL/6 mouse; conditions: IP 26 nmol ligand
Procedure: Applicants' ligands are useful in various applications including gene therapy, expression of proteins of interest in host cells, production of transgenic organisms, and cell-based assays. In vivo induction of a reporter enzyme with various ligands of the present invention was evaluated in a C57BL/6 mouse model system containing a gene switch.
Each element of the gene switch was on a separate plasmid. Receptor expression was under the control of a CMV promoter (SEQ ID NO: 15). Induction was evaluated by the amount of reporter protein expressed in the presence of ligand.
SEAP expression in serum of mice was evaluated after electroporation of the gene switch into mouse quadriceps. Mice were anesthetized with 2 μL/g of a mixture of ketamine (100 mg/mL) and xylazine (20 mg/mL). Animals were then shaved, DNA vectors injected into the muscle in a volume of 2×50 μL polyglutamic acid (12 mg/mL water), electrode conductivity gel applied, and an electrode caliber (1 cm×1 cm; model 384) was placed on hind leg. The muscle was electroporated with 200 V/cm, 8 times, for 20 msec/pulse, at 1 sec time intervals. The transverse electrical field direction was reversed after the animals received half of the pulses. Electroporation was performed with an ECM 830 electroporator from BTX Molecular Delivery Systems.
In some experiments mice received an intraperitoneal injection (IP) of 2.6 μmol of ligand in 50 μL of DMSO 3 days after electroporation of the gene switch. In other experiments the concentration of ligand was decrease to 26 nmol/50 μL of DMSO/mouse. SEAP expression was evaluated 2-11 days after ligand administration. In other experiments ligand was administered in rodent chow. The chow was prepared by dissolving 2 g of ligand in 20 mL of acetone and adding it to 1 kg of LabDiet 5010 autoclavable chow from Purina Mills. This was thoroughly mixed in a Hobart mixer and then mixed for an additional 15 min in a Cross Blend mixer. Animals received chow ad libitum for 1, 2, or 3 days. All values are the average from four animals. Background SEAP in sera from animals treated with vector alone without ligand addition was 0-11 ng/mL serum.
Mouse serum was obtained by centrifugation of blood acquired by retroorbital bleeding with a small glass capillary tube. SEAP quantification was determined using a Clontech Great Escape chemiluminescence kit and by comparison with the Clontech SEAP standard.
Table 9: In vivo evaluation of ligand-mediated induction of a mutated ecdysone receptor-based gene switch. SEAP expression in serum of mice was evaluated after electroporation of the gene expression cassettes into mouse quadriceps. Mice received an IP injection of 2.6 μmol of ligand 3 days after electroporation. SEAP expression was evaluated 2-11 days after ligand administration. Each dose group was composed of four animals. Percentage of GS™-E ligand induction was determined by averaging SEAP expression from four animals divided by the average SEAP expression induced with GS™-E ligand and then multiplying by 100.
Table 10: Induction of gene switch expression with low concentrations of ligand. SEAP expression in serum of mice was evaluated after electroporation of the gene expression cassettes into mouse quadriceps. Mice received an IP injection of 26 nmol of ligand or 130 nmol GS™-E ligand 3 days after electroporation. SEAP expression was evaluated 2-7 days after ligand administration. Values are the average from 4 animals.

[4] = molecular target: GAL4 DBD (1-147)-CfEcR(DEF)/VP16AD-βRXREF-LmUSPEF (Choristoneura fumiferana, UniProt O77240); assay: cell-based
Text: GAL4 DBD (1-147)-CfEcR(DEF)/VP16AD-βRXREF-LmUSPEF:
The wild-type D, E, and F domains from spruce budworm Choristoneura fumiferana EcR (“CfEcR-DEF”; SEQ ID NO: 1) were fused to a GAL4 DNA binding domain (“Gal4DBD1-147”; SEQ ID NO: 2) and placed under the control of a phosphoglycerate kinase promoter (“PGK”; SEQ ID NO: 3). Helices 1 through 8 of the EF domains from Homo sapiens RXRβ (“HsRXRβ-EF”; nucleotides 1-465 of SEQ ID NO: 4) and helices 9 through 12 of the EF domains of Locusta migratoria Ultraspiracle Protein (“LmUSP-EF”; nucleotides 403-630 of SEQ ID NO: 5) were fused to the transactivation domain from VP16 (“VP16AD”; SEQ ID NO: 6) and placed under the control of an elongation factor-1α promoter (“EF-1α”; SEQ ID NO: 7). Five consensus GAL4 response element binding sites (“5XGAL4RE”; comprising 5 copies of a GAL4RE comprising SEQ ID NO: 8) were fused to a synthetic TATA minimal promoter (SEQ ID NO: 9) and placed upstream of the luciferase reporter gene (SEQ ID NO: 10).
CHO cells were transiently transfected with transcription cassettes for GAL4 DBD (1-147) CJEcR(DEF) and for VP16AD βRXREF-LmUSPEF controlled by ubiquitously active cellular promoters (PGK and EF-la, respectively) on a single plasmid. Stably transfected cells were selected by Zeocin resistance. Individually isolated CHO cell clones were transiently transfected with a GAL4 RE-luciferase reporter (pFR Luc). 27-63 clone was selected using Hygromycin.
Cells were trypsinized and diluted to a concentration of 2.5×10^4 cells mL. 100 μL of cell suspension was placed in each well of a 96 well plate and incubated at 37° C. under 5% CO2 for 24 h. Ligand stock solutions were prepared in DMSO and diluted 300 fold for all treatments. Dose response testing consisted of 8 concentrations ranging from […] to 0.01 μM.
Luciferase reporter gene expression was measured 48 h after cell treatment using Bright-Glo™ Luciferase Assay System from Promega (E2650). Luminescence was detected at room temperature using a Dynex MLX microtiter plate luminometer.
Each assay was conducted in two separate wells, and the two values were averaged. Fold inductions were calculated by dividing relative light units (“RLU”) in ligand treated cells with RLU in DMSO treated cells. EC50s were calculated from dose response data using a three-parameter logistic model.

Structure (SMILES)	Fold Induction, 13B3 Assay, 3.3 uM [1]	Fold Induction, 13B3 Assay, 33 uM [1]	13B3 assay Rel Max FI [1]	EC50 [1]	Fold Induction, Z3 Assay, 3.3 uM [2]	Fold Induction, Z3 Assay, 33 uM [2]	Z3 assay Rel Max FI [2]	EC50 [2]	other results
CCc1c(OC)cccc1C(=O)NN(C(=O)c1cc(C)cc(C=NO)c1)C(C)(C)C [RG-115625]	3	715	0.931	25300 nM	265	1559	0.950	389 nM	
CCc1c(OC)cccc1C(=O)NN(C(=O)c1cccc(F)c1F)C(C)(C)C [RG-115627]	1291	10058	0.854	921 nM	378	362	0.840	813 nM	
CCc1c(OC)cccc1C(=O)NN(C(=O)c1cccc(Br)c1)C(C)(C)C#N [RG-115648]	9						0.182	21400 nM	
CCc1ccc(C(=O)NN(C(=O)c2cccc(C)c2)C(C)(C)C)c(F)c1 [RG-115674]	442		0.875	1720 nM	319		0.995	229 nM	
CCc1c(C(=O)NN(C(=O)c2cc(F)c(Cl)cc2Cl)C(C)(C)C)ccc2c1OCCO2 [RG-115684]		151				498			
CCc1c(OC)cccc1C(=O)NN(C(=O)c1cc(OC)c(C)c(OC)c1)C(C)(C)C#N [RG-115690]	930		1.181	632 nM	571		0.998	209 nM	
CCc1c(OC)cccc1C(=O)NN(C(=O)c1nc(SC)cnc1Cl)C(C)(C)C [RG-115716]	3					66			
CCc1c(OC)cccc1C(=O)NN(C(=O)c1ccc2nc[nH]c2c1)C(C)(C)C [RG-115719, 3H-benzoimidazole-5-carboxylic acid N-tert-butyl-N′-(2-ethyl-3-methoxy-benzoyl)-hydrazide]									fold induction at 33 µM ([1]; read-out: Fold Induction, 13B3 Assay, 33 uM): 1; fold induction at 33 µM ([2]; HEK293, read-out: Fold Induction, Z3 Assay, 33 uM): 271
CCC(N(NC(=O)c1ccc2c(c1C)OCCO2)C(=O)c1cc(C)cc(C)c1)C(C)(C)C (stereo not drawn) [RG-115856, 3,5-Dimethyl-benzoic acid N-(1-ethyl-2,2-dimethyl-propyl)-N′-(5-methyl-2,3-dihydro-benzo[1,4]dioxine-6-carbonyl)-hydrazide]									Secreted Alkaline Phosphatase Day 2 ([3]; day 2): 2,292 ng/ml mouse sera; Secreted Alkaline Phosphatase Day 3 ([3]; day 3): 2,350 ng/ml mouse sera; EC50 [4]: 3 nM; 27-63 assay Rel Max FI ([4]; maximum fold induction at any concentration relative to that of GS-E ligand, CHO 27-63 cells): 0.879; fold induction at 33 µM ([4]; read-out: Fold Induction, 27-63 Assay, 33 uM): 1760

— patent US9102648B1, “Bioavailable diacylhydrazine ligands for modulating the expression of exogenous genes via an ecdysone receptor complex” (Intrexon Corporation, priority 2003, dated 2015)
